In patent publication US10988786B2, “Mutant 4-hydroxyphenylacetate 3-hydroxylases and uses thereof” (SYMRISE AG, priority 2015, dated 2021):

What was measured:
4HPA3H = molecular target: T1, 4HPA3H (Escherichia coli, UniProt Q57160); assay: Whole-cell hydroxylation, cells expressing wild-type 4HPA3H; format: cell-based, E. coli; conditions: BL21(DE3) cells expressing wild-type 4HPA3H
T1 construct: expressed in transfected cells; host or cells: E. coli BL21(DE3)

[1] = molecular target: T2, 4HPA3H-Y301F/S462A (SEQ ID NO:175) (Escherichia coli, UniProt Q57160, S462A/Y301F); assay: Solid phase-based cascade (Talon column), hydroxylation of naringenin to eriodictyol; format: biochemical, E. coli
T2 construct: made in house; host or cells: E. coli BL21(DE3)
Description: Stock solutions of […] and eriodictyol (10 mM each) in methanol were produced (for the structure of the compounds, see FIG. 9). They were diluted using acetonitrile for obtaining the desired concentrations (70, 110, 140, 210 and 280 μM). 10 μl of each sample was injected in to a HPLC machine and calibration curves were produced for both substances (data not shown).
First the catalysis was performed using 9 mU oxidase 4HPA3H in a 10 ml reaction comprising 1 ml 1M Tris/HCl, pH 7.5; 25 μl of a 10 mM NADH solution, 20 μl of a 5 mM FAD solution and 1 ml formate solution using 9 mU 4HPA3H-Y301F/S462A (SEQ ID NO:175) and 0.57 mU PrnF-reductase (SEQ ID NO:176) and 640 mU FDH (SEQ ID NO:177). Subsequently the enzymes were mixes, 100 μl 1M Tris/HCl solution, pH 7.5, was added and ddH2O (deionized, reverse osmosis) was added ad 2 ml. The enzyme solution was at least 5 times passed through a 1 ml Talon column with a flow rate of 0.1 ml/min^−1 to let the proteins bind to the column in a homogenous way. The evaluation of the complete binding of the proteins to the column material was measured via Bradford assay. Then, the column was washed once with 50 mM Tris/HCl, pH 7.5 (=basis buffer), and connected to a peristaltic pump.
The constituents of each reaction mixture were transferred to a suitable sterile flask, which was then connected to a peristaltic pump. During reaction, the reaction mixture was slightly stirred with the help of a magnetic stirrer. Using a flow rate of 1 ml/min, the system was washed with the basis buffer for 2 min and a control sample was taken. Only then, the substrate was added, here 200 μM naringenin (from a 10 mM stock solution in methanol). The substrate was pumped over the Talon column having the enzymes bound thereto with a flow rate of 1 ml/min at maximum. During the time range from 0-1310 min, the sample extraction was performed in samples of 35 μl each. Said samples were mixed with an equal volume of acetonitrile and were immediately injected into a HPLC device (20 μl each). The evaluation was conducted with the help of a calibration curve done at the beginning of the experiment and thereby measuring and calculating the peak areas (see FIG. 10).
The same assay was performed using 35 mU hydroxylase/1 ml column volume and the concentration of the co-enzymes for regeneration of the cofactor was increased equivalently.

[2] = molecular target: two component non-P450 hydroxylase HpaBC (Escherichia coli, UniProt Q57160); conditions: native wild-type HpaBC; proceeds incomplete; cited from earlier work
wild-type 4HPA3H = molecular target: T3, wild-type 4HPA3H (Escherichia coli, UniProt Q57160); assay: In vitro hydroxylation by the 4HPA3H/PrnF/FDH system, wild-type 4HPA3H; format: biochemical, E. coli; conditions: substrate 1 mM, purified wild-type 4HPA3H, optimized conditions
T3 construct: made in house; host or cells: E. coli BL21(DE3)
Description: (§1) Purified 4HPA3H (A) or variants (B) (Y301I depicted in white and Y301F/S462A depicted in black) were used for conversion of substrates (1 mM) under optimized conditions. The numbers correspond to substrates as explained in the legend for FIG. 1 above.
(§2) In order to develop an effective and low-cost enzyme system for in vitro hydroxylation, several parameters of the 4HPA3H reaction with respect to maximum reaction rate were optimized. By means of a spectrophotometric assay (Example 4 above), the inventors screened different buffer systems and optimized the concentration of the components p-coumaric acid (1 cf. FIG. 1), FAD, NADH and methanol, the incubation temperature and oxygen transfer (i.e. by variation of the shaking frequency) (optimum conditions are given in the Experimental Section). […] In contrast to the cofactors, the accompanying cofactor recycling redox enzymes PrnF and FDH were used in excess due to their high specific activity.
In accordance with the whole-cell transformation experiments (FIG. 3), product yields in the conversion by the wild-type 4HPA3H (FIG. 8A) ranged from high (1, 13, 15 cf. FIG. 1) or moderate (5 cf. FIG. 1) to low (9, 11 cf. FIG. 1), whereas ferulic acid 3 was not oxidized. […] However, in contrast to the experiments with life biocatalysts […] conversion of naringenin (7 cf. FIG. 1) by the wild-type 4HPA3H (25% yield) was observed (which might be explained by increased substrate availability). The hydroxycarbazole (11) was not accepted by the double variant Y301F/S462A, probably because of the high substrate concentration which seems to reflect strong […] inhibition—an effect which has previously been observed for other 4HPA3H enzymes. Noteworthy, HPLC analysis of the reaction products confirmed product specificity.

[3] = molecular target: T4, 4HPA3H double variant Y301F/S462A (Escherichia coli, UniProt Q57160, S462A/Y301F); assay: In vitro hydroxylation by the 4HPA3H/PrnF/FDH system, variant Y301F/S462A; format: biochemical, E. coli; conditions: substrate 1 mM, purified Y301F/S462A
T4 construct: made in house; host or cells: E. coli BL21(DE3)
Description: as §1, §2
In accordance with the whole-cell transformation experiments (FIG. 3), product yields in the conversion by the wild-type 4HPA3H (FIG. 8A) ranged from high (1, 13, 15 cf. FIG. 1) or moderate (5 cf. FIG. 1) to low (9, 11 cf. FIG. 1), whereas ferulic acid 3 was not oxidized. […]

4HPA3H/PrnF/FDH system = assay: Dependence of in vitro conversion of p-coumaric acid on FAD concentration; format: biochemical
Description: The reactions were to performed using the 4HPA3H/PrnF/FDH system.
as §2

[4] = Reduction of FAD with NADH by purified PrnF; format: biochemical; conditions: purified protein
Source text: In order to characterize 4HPA3H and its variants with respect to specific activity, the development of a convenient in vitro assay was necessary. As the enzymes rely on a reductase component which provides the cofactor FADH2 (see FIG. 2), the inventors focused on screening of a suitable reductase enzyme in the first step. The flavin reductase HpaC from E. coli—the endogenous partner of 4HPA3H—was not accessible due to formation of mainly insoluble protein under a variety of expression conditions (data not shown).

Molecule: O=C1C[C@@H](c2ccc(O)cc2)Oc2cc(O)cc(O)c21 [Compound 7, naringenin]
- acceptance as substrate (4HPA3H): not accepted
- remaining concentration of naringenin ([1]; 9 mU enzyme/1 ml column, 200 μM naringenin, after 1290 min): 29.3 µM
- remaining concentration of naringenin ([1]; 35 mU hydroxylase/1 ml column volume, after 240 min): 33.3 µM
- conversion of naringenin to eriodictyol [2]: < 10%

Molecule: Oc1ccc2c(c1)[nH]c1ccccc12 [Compound 11, 2-hydroxycarbazole]
- product yield (wild-type 4HPA3H): low
- acceptance as substrate [3]: not accepted

Molecule: Cc1cc2nc3c(=O)[nH]c(=O)nc-3n(C[C@H](O)[C@H](O)[C@H](O)COP(=O)(O)OP(=O)(O)OC[C@H]3O[C@@H](n4cnc5c(N)ncnc54)[C@H](O)[C@@H]3O)c2cc1C [FAD, flavin adenine dinucleotide]
- effect of high concentrations on the redox system (4HPA3H/PrnF/FDH system): inhibitory

B1: PrnF: flavin reductase from Pseudomonas protegens Pf-5, cofactor recycling enzyme, SEQ ID NO:176 (protein, listed as Pseudomonas protegens)
chain: MNAATETKVHDLLDAEGRDVRDARELRNVLGQFATGVTVITTRTADGRNVGVTANSFSSLSLSPALVLWSLARTAPSLKAFCSASHFAINVLGAHQHHLSEQFARAAADKFAGVAHSYGKAGAPVLDDVVAVLVCRNVTQYEGGDHLIFIGEIEQYRYSGAEPLVFHAGQYRGLGSNRAESVLKHE
modifications: flavin reductase PrnF
- activity in reduction of FAD with NADH [4]: 16,660±1,600 nmol min^−1 mg^−1
